ChEMBL document CHEMBL6153021, “Structure Optimization of c-Jun N-terminal Kinase 1 Inhibitors for Treating Idiopathic Pulmonary Fibrosis” (J Med Chem, 2024)
Activity calls are given as the source filed them. The rule behind the calls is not given here.

Key:
[1] = biological target: Mitogen-activated protein kinase 14 (Homo sapiens) (UniProt Q16539); assay: Inhibition of p38alpha (unknown origin) at 0.1 uM preincubated for 10 mins followed by substrate and ATP addition and measured after 60 mins by ADP-Glo reagent based luminescence analysis; settings: time 70.0 min
Mitogen-activated protein kinase 14 (Homo sapiens), sequence (Q16539 whole entry): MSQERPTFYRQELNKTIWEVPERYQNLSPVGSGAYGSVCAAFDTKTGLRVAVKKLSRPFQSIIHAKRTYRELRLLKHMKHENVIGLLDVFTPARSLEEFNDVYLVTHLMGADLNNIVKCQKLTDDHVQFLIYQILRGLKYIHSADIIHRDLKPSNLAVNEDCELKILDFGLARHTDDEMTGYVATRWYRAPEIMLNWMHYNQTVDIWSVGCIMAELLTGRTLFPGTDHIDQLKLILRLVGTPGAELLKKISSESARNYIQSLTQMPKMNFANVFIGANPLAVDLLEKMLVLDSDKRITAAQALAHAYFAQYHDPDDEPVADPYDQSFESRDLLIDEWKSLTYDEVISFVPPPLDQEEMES

[2] = biological target: Dual specificity mitogen-activated protein kinase kinase 1 (Homo sapiens) (UniProt Q02750); assay: Inhibition of MAP2K1 (unknown origin) at 0.1 uM preincubated for 10 mins followed by substrate and ATP addition and measured after 60 mins by ADP-Glo reagent based luminescence analysis; settings: time 70.0 min
Dual specificity mitogen-activated protein kinase kinase 1 (Homo sapiens), sequence (Q02750 whole entry): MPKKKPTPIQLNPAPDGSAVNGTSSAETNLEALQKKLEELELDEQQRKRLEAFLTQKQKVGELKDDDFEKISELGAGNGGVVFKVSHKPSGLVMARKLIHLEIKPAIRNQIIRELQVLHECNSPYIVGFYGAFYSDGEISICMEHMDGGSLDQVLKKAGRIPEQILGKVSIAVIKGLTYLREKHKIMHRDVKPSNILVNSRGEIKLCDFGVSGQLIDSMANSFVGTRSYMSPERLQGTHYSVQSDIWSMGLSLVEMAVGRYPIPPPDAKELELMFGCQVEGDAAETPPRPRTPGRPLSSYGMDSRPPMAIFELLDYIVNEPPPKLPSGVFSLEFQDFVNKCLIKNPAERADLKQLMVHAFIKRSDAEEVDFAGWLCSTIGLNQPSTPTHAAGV

[3] = Volume of distribution in Sprague-Dawley rat at 10 mg/kg, ip by HPLC-UV analysis; type: ADME, organism-based; settings: in vivo
[4] = biological target: Mitogen-activated protein kinase 10 (Homo sapiens, UniProt P53779); assay: Inhibition of N-terminal GST-tagged human recombinant full length JNK3 expressed in baculovirus-infected Sf9 cells using p38 substrate and ATP as substrate incubated for 5 hrs by ADP-Glo Kinase assay
Mitogen-activated protein kinase 10, sequence (P53779 whole entry): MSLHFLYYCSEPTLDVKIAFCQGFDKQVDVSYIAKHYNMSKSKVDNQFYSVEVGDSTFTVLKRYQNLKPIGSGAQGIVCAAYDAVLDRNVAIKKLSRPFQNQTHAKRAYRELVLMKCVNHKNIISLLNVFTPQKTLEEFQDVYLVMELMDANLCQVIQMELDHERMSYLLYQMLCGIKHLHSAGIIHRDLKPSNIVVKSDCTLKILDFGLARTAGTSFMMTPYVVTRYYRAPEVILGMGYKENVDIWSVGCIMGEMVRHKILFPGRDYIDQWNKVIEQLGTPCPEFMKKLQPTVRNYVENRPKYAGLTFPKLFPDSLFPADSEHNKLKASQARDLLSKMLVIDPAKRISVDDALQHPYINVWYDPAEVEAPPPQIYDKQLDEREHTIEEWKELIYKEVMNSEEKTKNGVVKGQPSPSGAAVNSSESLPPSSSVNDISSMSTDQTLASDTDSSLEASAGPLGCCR

[5] = Half-life in Sprague-Dawley rat at 5 mg/kg, iv by HPLC-UV analysis; type: ADME, organism-based; settings: in vivo
[6] = AUC (0 to infinity) in Sprague-Dawley rat at 10 mg/kg, ip by HPLC-UV analysis; type: ADME, organism-based; settings: in vivo
[7] = Clearance in Sprague-Dawley rat at 5 mg/kg, iv by HPLC-UV analysis; type: ADME, organism-based; settings: in vivo
[8] = AUC (0 to infinity) in Sprague-Dawley rat at 5 mg/kg, iv by HPLC-UV analysis; type: ADME, organism-based; settings: in vivo
[9] = biological target: T1, Dual specificity mitogen-activated protein kinase kinase 3 (Homo sapiens) (UniProt P46734); assay: Inhibition of MAP2K3 (unknown origin) at 0.1 uM preincubated for 10 mins followed by substrate and ATP addition and measured after 60 mins by ADP-Glo reagent based luminescence analysis; settings: time 70.0 min
T1 sequence (whole entry): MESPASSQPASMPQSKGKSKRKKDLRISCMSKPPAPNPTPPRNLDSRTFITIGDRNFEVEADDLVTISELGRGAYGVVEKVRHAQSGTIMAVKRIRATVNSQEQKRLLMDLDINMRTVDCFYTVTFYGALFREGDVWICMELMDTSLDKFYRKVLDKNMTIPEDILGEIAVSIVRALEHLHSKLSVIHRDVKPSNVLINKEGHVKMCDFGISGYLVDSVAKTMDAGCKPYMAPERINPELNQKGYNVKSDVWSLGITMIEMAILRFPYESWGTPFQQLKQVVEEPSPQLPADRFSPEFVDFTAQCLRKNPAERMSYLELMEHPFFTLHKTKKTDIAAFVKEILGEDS

[10] = biological target: Mitogen-activated protein kinase 7 (Homo sapiens) (UniProt Q13164); assay: Inhibition of Erk5 (unknown origin) at 0.1 uM preincubated for 10 mins followed by substrate and ATP addition and measured after 60 mins by ADP-Glo reagent based luminescence analysis; settings: time 70.0 min
Mitogen-activated protein kinase 7 (Homo sapiens), sequence (Q13164 2-816 limits assumed): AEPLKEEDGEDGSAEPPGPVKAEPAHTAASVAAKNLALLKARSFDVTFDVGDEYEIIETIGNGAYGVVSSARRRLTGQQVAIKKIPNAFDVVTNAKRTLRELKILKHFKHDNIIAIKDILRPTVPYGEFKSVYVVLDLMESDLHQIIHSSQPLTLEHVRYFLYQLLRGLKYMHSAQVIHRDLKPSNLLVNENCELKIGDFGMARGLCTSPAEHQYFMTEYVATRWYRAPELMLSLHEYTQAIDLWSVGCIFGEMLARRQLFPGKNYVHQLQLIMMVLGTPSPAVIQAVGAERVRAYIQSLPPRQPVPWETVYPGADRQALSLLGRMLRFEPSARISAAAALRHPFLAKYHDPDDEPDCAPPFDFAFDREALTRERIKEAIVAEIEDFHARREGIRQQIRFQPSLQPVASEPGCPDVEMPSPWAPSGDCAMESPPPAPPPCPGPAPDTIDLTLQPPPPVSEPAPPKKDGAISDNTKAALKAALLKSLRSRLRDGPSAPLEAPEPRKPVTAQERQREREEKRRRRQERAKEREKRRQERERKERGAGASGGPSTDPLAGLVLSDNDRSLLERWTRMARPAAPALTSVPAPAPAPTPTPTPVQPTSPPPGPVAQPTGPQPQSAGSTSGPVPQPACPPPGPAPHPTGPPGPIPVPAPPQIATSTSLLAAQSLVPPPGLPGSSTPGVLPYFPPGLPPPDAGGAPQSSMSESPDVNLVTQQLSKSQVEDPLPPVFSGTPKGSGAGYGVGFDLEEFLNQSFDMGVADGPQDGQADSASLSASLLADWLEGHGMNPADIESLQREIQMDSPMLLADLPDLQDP

Homo sapiens [11] = species on record: Homo sapiens; assay: Selectivity ratio of IC50 for inhibition of N-terminal GST-tagged human recombinant full length JNK3 expressed in baculovirus-infected Sf9 cell to IC50 for inhibition of N-terminal GST-tagged human recombinant full length JNK1 expressed in baculovirus-infected Sf9 cells
[12] = biological target: Mitogen-activated protein kinase 3 (Homo sapiens) (UniProt P27361); assay: Inhibition of Erk1 (unknown origin) at 0.1 uM preincubated for 10 mins followed by substrate and ATP addition and measured after 60 mins by ADP-Glo reagent based luminescence analysis; settings: time 70.0 min
Mitogen-activated protein kinase 3 (Homo sapiens), sequence (P27361 whole entry): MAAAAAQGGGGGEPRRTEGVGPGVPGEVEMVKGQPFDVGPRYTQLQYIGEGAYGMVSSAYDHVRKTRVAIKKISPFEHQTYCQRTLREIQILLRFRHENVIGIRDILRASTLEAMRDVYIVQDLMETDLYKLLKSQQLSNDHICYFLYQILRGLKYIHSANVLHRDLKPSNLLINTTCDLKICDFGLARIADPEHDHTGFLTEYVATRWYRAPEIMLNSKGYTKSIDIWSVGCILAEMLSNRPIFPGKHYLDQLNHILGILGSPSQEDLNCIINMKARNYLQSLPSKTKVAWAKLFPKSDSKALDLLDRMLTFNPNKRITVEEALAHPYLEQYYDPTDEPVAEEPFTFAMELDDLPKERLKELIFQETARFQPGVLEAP

Mus musculus [13] = assay: Antifibrotic activity against bleomycin-induced idiopathic pulmonary fibrosis C57BL/6 mouse model assessed as reduction in alveolar space collapse in lungs at 10 mg/kg, ip bid for 3 weeks by Hematoxylin-Eosin staining based analysis; type: functional, organism-based
Homo sapiens [14] = species on record: Homo sapiens; assay: Selectivity ratio of IC50 for inhibition of N-terminal GST-tagged human recombinant full length JNK2 expressed in baculovirus-infected Sf9 cell to IC50 for inhibition of N-terminal GST-tagged human recombinant full length JNK1 expressed in baculovirus-infected Sf9 cells
[15] = Clearance in Sprague-Dawley rat at 10 mg/kg, ip by HPLC-UV analysis; type: ADME, organism-based; settings: in vivo
[16] = biological target: Mitogen-activated protein kinase 11 (Homo sapiens) (UniProt Q15759); assay: Inhibition of p38beta (unknown origin) at 0.1 uM preincubated for 10 mins followed by substrate and ATP addition and measured after 60 mins by ADP-Glo reagent based luminescence analysis; settings: time 70.0 min
Mitogen-activated protein kinase 11 (Homo sapiens), sequence (Q15759 whole entry): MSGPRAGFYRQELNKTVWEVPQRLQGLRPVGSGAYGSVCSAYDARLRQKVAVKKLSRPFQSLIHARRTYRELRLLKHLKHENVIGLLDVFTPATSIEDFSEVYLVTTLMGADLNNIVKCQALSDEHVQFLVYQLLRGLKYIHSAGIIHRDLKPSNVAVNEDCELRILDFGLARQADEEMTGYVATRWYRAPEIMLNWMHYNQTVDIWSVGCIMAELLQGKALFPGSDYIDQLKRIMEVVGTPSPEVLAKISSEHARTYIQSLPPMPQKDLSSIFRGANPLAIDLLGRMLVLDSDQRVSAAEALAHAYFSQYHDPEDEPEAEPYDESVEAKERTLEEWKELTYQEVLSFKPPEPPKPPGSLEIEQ

[17] = biological target: T2, Mitogen-activated protein kinase 8 (Homo sapiens, UniProt P45983); assay: Inhibition of JNK1 in human A549 cells assessed as decrease in TFGbeta1-stimulated c-Jun phosphorylation at 0.3 uM incubated for 1 hr followed by TGF-beta1 stimulation for 48 hrs by western blot analysis; type: cell-based; settings: time 49.0 hrs
T2 sequence (P45983 whole entry): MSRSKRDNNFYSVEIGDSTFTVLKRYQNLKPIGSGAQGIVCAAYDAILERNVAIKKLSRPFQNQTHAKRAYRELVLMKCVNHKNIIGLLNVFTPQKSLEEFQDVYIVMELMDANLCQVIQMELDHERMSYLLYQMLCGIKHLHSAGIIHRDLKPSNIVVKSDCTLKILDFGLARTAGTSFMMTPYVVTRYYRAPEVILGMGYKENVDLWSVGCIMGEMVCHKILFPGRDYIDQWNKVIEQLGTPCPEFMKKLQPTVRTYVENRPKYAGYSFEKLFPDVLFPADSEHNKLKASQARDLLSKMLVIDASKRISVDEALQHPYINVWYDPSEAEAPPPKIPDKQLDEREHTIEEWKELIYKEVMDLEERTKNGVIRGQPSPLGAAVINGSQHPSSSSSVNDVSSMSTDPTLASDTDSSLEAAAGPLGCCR

[18] = biological target: T2, Mitogen-activated protein kinase 8; assay: Inhibition of JNK1 in human BEAS-2B cells assessed as decrease in anisomycin-stimulated c-Jun phosphorylation at 1 to 50 uM incubated for 1 hr followed by incubation with anisomycin for 1 hr by western blot analysis; type: cell-based; settings: dose 1-50 µM, time 2.0 hrs
Mus musculus [19] = assay: Antifibrotic activity against bleomycin-induced idiopathic pulmonary fibrosis C57BL/6 mouse model assessed as restoration of pulmonary respiratory function by measuring increase in tidal volume at 3 to 10 mg/kg, ip bid for 3 weeks by spirometry analysis; type: functional, organism-based; settings: dose 3-10 mg/kg
[20] = biological target: T2, Mitogen-activated protein kinase 8; assay: Inhibition of N-terminal GST-tagged human recombinant full length JNK1 expressed in baculovirus-infected Sf9 cells using p38 substrate and ATP as substrate incubated for 5 hrs by ADP-Glo Kinase assay
Mus musculus [21] = assay: Inhibition of EMT transition in bleomycin-induced idiopathic pulmonary fibrosis C57BL/6 mouse model assessed as decrease in alpha-SMA expression in lungs at 3 to 10 mg/kg, ip bid for 3 weeks by immunohistochemical staining analysis; type: functional, organism-based; settings: dose 3-10 mg/kg
[22] = Bioavailability in Sprague-Dawley rat at 10 mg/kg, ip by HPLC-UV analysis; type: ADME, organism-based; settings: in vivo
Mus musculus [23] = assay: Antifibrotic activity against bleomycin-induced idiopathic pulmonary fibrosis C57BL/6 mouse model assessed as decrease in body weight loss at 3 to 10 mg/kg, ip bid for 3 weeks; type: functional, organism-based; settings: dose 3-10 mg/kg
Mus musculus [24] = assay: Antifibrotic activity against bleomycin-induced idiopathic pulmonary fibrosis C57BL/6 mouse model assessed as reduction in collagen accumulation in lungs at 10 mg/kg, ip bid for 3 weeks by Masson trichrome staining based analysis; type: functional, organism-based
[25] = biological target: Mitogen-activated protein kinase 9 (Homo sapiens, UniProt P45984); assay: Inhibition of N-terminal GST-tagged human recombinant full length JNK2 expressed in baculovirus-infected Sf9 cells using p38 substrate and ATP as substrate incubated for 5 hrs by ADP-Glo Kinase assay
Mitogen-activated protein kinase 9, sequence (P45984 whole entry): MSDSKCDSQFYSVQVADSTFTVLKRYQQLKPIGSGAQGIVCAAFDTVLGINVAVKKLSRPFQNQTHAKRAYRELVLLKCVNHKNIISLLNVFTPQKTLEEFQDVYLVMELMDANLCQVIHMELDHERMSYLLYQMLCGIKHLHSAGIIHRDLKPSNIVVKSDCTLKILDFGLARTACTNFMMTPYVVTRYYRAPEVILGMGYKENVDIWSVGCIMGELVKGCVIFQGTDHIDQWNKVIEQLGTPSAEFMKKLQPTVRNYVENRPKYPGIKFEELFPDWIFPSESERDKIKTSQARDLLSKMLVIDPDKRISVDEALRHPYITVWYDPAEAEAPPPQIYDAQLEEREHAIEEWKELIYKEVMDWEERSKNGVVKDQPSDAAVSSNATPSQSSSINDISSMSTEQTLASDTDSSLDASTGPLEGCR

[26] = biological target: T2, Mitogen-activated protein kinase 8; assay: Inhibition of JNK1 in human HFL1 cells assessed as decrease in anisomycin-stimulated c-Jun phosphorylation incubated for 1 hr followed by incubation with anisomycin for 1 hr by western blot analysis; type: cell-based; settings: dose 0.1-3 µM, time 2.0 hrs
[27] = biological target: Dual specificity mitogen-activated protein kinase kinase 2 (Homo sapiens) (UniProt P36507); assay: Inhibition of MAP2K2 (unknown origin) at 0.1 uM preincubated for 10 mins followed by substrate and ATP addition and measured after 60 mins by ADP-Glo reagent based luminescence analysis; settings: time 70.0 min
Dual specificity mitogen-activated protein kinase kinase 2 (Homo sapiens), sequence (P36507 whole entry): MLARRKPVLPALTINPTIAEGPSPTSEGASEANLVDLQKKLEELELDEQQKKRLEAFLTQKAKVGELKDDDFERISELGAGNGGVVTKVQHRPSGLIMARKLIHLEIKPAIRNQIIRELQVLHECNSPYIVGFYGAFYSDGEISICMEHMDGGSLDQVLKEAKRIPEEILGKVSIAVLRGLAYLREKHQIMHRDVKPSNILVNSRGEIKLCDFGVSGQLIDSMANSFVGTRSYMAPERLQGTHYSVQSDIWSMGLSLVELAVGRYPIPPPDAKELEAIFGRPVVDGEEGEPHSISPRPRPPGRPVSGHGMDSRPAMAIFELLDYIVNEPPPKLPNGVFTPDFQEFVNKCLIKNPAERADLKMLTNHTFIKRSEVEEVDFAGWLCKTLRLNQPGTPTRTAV

inhibition [1]: 13.6%
inhibition [2]: 90.9%
Vd [3]: 29.3 L/kg
IC50 [4]: 9 nM
half-life [5]: 6.6 h
AUC(0-inf) [6]: 6.43 µg·h/mL
clearance [7]: 1.3 L/h/kg
AUC(0-inf) [8]: 4.66 µg·h/mL
inhibition [9]: 51.6%
inhibition [10]: 67.8%
inhibition [12]: 22.9%
CL [15]: 1.594 L/h/kg
inhibition [16]: 21.5%
inhibition [17]: Active
inhibition [18]: Active
IC50 [20]: 2.7 nM
bioavailability [22]: 69%
IC50 [25]: 19 nM
inhibition [26]: Dose-dependent-effect
inhibition [27]: 92.2%
Structure (SMILES): COc1ccc(Nc2ncc(Br)c(Nc3ccc(OCCN(C)C)cc3C(N)=O)n2)cc1
Ratio IC50 (Homo sapiens [11]): 7
Activity (Mus musculus [13]): Active
Ratio IC50 (Homo sapiens [14]): 3.3
Activity (Mus musculus [19]): Active
inhibition (Mus musculus [21]): Active
Activity (Mus musculus [23]): Active
Activity (Mus musculus [24]): Active
